Data published in publication PMC3340383, “Synthesis and Evaluation of a Series of 2-Substituted-5-Thiopropylpiperazine (Piperidine)-1,3,4-Oxadiazoles Derivatives as Atypical Antipsychotics” (PLoS ONE, 2012).
Read-outs that look alike come from different tables or passages of the source.

Legend:
in vivo = conditions: Kun Ming (KM), mouse, po
[1] = test system: apomorphine-induced climbing behavior in mice; experiment: Apomorphine-induced climbing; format: in vivo; conditions: Mus musculus; mice, po; 95% confidence limits in parentheses; read-out: Apomorphine-induced climbing ED50 (A)
Method: . […] . Animals were then challenged at 30 minutes post-injection with 1.0 mg/kg of the apomorphine in 0.9% NaCl+0.1% ascorbic acid, placed in cylindrical wire cages (12 cm in diameter, 14 cm in height), and observed for climbing behavior at 10, 20 and 30 min post dose. The climbing behaviour was scored as follows: 3–4 paws on the cage floor = 0 score; 2 and 3 paws on the cage = 1 score; 4 paws on the cage = 2 score.

[2] = test system: MK-801-induced hyperactivity in mice; experiment: MK-801-induced hyperactivity; conditions: Mus musculus, po, read-out: MK-801-induced hyperactivity ED50 (B)
histamine H1 receptor = biological target: T1, histamine H1 receptor (Cavia porcellus, UniProt P31389); experiment: Histamine H1 binding assay ([3H]pyrilamine, guinea pig cerebellum); conditions: read-out: Ki±SEM, H1
T1 construct: Guinea pig cerebellum was homogenized in 20 volumes of ice-cold 50 mM phosphate buffer; from tissue; host or cells: guinea pig cerebellum
T1 sequence (P31389 whole entry): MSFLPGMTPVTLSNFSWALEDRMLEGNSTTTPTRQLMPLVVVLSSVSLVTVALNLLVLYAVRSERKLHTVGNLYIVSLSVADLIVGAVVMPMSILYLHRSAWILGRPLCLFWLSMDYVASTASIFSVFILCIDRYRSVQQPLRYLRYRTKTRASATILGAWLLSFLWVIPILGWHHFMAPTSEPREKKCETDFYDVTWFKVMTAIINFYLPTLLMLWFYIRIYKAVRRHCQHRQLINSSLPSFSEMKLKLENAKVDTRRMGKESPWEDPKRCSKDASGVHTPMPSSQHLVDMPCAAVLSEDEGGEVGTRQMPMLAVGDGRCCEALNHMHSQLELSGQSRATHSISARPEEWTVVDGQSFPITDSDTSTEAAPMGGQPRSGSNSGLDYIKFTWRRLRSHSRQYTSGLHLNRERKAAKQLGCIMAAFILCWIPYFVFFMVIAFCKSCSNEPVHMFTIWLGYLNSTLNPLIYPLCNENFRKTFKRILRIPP
Method: (§1) All the new compounds were dissolved in 5% DMSO. The following specific radioligands and tissue sources were used: (a) serotonin 5-HT1A receptor, [^3H]8-OH-DPAT, rat brain cortex; (b) serotonin 5-HT2A receptor, [^3H]ketanserin, rat brain cortex; (c) serotonin 5-HT2C receptor, [^3H]mesulergine, rat brain cortex; (d) dopamine D2 receptor, [^3H]spiperone, rat striatum; (e) dopamine D3 receptor, [^3H]spiperone, rat olfactory tubercle (f) histamine H1 receptor, [^3H] pyrilamine, guinea pig cerebellum.
(§2) Total binding was determined in the absence of no-specific binding and compounds. Specific binding was determined in the presence of compounds. Non-specific binding was determined as the difference between total and specific binding.
(§3) Percentage of inhibition (%) = (total binding − specific binding)×100%/(total binding − nonspecific binding).
(§4) Ki values were calculated based on the Cheng and Prussoff equation: Ki = IC50/(1+C/Kd) where C represents the concentration of the hot ligand used and Kd its receptor dissociation constant were calculated for each labeled ligand. Mean Ki values and SEM were reported for at least three independent experiments.
(§5) The incubation was followed by a rapid vacuum filtration through Whatman GF/B glass filters, and the filtrates were washed twice with 5 mL cold buffer and transferred to scintillation vials. Scintillation fluid (3.0 mL) was added and the radioactivity bound was measured using a Beckman LS 6500 liquid scintillation counter.

[3] = biological target: T2, serotonin 5-HT2A receptor (Rattus norvegicus, UniProt P14842); experiment: 5-HT2A binding assay ([3H]ketanserin, rat brain cortex); conditions: read-out: Ki±SEM, 5HT2A
T2 construct: Rat cerebral cortex was homogenized in 20 volumes of ice-cold Tris-HCl buffer; from tissue; host or cells: rat brain (cerebral) cortex
T2 sequence (P14842 whole entry): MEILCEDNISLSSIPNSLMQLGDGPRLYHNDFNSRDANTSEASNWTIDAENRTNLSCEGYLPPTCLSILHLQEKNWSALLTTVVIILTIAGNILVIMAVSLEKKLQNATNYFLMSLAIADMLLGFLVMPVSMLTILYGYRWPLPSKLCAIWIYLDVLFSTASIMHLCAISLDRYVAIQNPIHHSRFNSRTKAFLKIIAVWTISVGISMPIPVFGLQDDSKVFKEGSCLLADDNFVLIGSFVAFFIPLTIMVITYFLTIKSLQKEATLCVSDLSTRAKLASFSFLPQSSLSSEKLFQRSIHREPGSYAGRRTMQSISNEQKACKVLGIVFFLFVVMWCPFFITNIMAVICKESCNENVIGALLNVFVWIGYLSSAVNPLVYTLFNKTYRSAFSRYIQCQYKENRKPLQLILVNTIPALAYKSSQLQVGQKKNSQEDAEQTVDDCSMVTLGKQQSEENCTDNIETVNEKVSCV
Method: as §1, §2, §3, §4
Rat cerebral cortex was homogenized in 20 volumes of ice-cold Tris-HCl buffer (50 mM, pH 7.7) using an ULTRA TURAX homogeniser, and centrifuged at 32000 g for 20 min. The resulting pellet was resuspended in the same quantity of the buffer centrifuged for 20 min. The final pellet was resuspended in 50 volumes of the Tris-HCl buffer.
Total binding each assay tube was added 900 µL of the tissue suspension, 50 µL of 0.6 nM [^3H]ketanserin (60.0 Ci/mmol, Perkin Elmer Life Sciences, Boston, MA, USA), 50 µL Tris-HCl buffer.
Non-specific binding each assay tube was added 900 µL of the tissue suspension, 50 µL of 0.6 nM [^3H]ketanserin, 50 µL of 10 µM methisergide.
Specific binding each assay tube was added 900 µL of the tissue suspension, 50 µL of 0.6 nM [^3H]ketanserin, […] of new compounds or reference drug.
as §5

[4] = biological target: T3, serotonin 5-HT1A receptor (Rattus norvegicus, UniProt P19327); experiment: 5-HT1A binding assay ([3H]8-OH-DPAT, rat brain cortex); conditions: read-out: Ki±SEM, 5HT1A
T3 construct: Rat cerebral cortex was homogenized in 20 volumes of ice-cold Tris-HCl buffer; from tissue; host or cells: rat brain (cerebral) cortex
T3 sequence (P19327 1-422): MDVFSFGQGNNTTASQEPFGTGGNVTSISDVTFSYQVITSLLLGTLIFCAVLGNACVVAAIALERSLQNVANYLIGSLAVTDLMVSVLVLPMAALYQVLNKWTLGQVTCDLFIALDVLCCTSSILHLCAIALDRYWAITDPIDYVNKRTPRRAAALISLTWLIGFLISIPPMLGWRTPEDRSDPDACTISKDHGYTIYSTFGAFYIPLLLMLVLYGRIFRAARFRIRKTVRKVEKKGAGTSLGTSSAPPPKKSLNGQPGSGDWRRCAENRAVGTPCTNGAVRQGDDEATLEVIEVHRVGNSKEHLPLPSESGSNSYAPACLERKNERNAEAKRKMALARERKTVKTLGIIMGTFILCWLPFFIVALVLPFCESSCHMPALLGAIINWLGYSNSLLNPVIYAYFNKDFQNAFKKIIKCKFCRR
Method: as §1, §2, §3, §4
Rat cerebral cortex was homogenized in 20 volumes of ice-cold Tris-HCl buffer (50 mM, pH 7.7) using an ULTRA TURAX homogeniser, and was then centrifuged at 32000 g for 10 min. […] The final pellet was resuspended in Tris-HCl buffer containing 10 µM Pargyline, 4 mM CaCl2 and 0.1% ascorbic acid.
Total binding each assay tube was added 900 µL of the tissue suspension, 50 µL of 0.5 nM [^3H]8-OH-DPAT (187.4 Ci/mmol, Perkin Elmer Life Sciences, Boston, MA, USA), 50 µL Tris-HCl buffer containing 10 µM Pargyline, 4 mM CaCl2 and 0.1% ascorbic acid.
Non-specific binding each assay tube was added 900 µL of the tissue suspension, 50 µL of 0.5 nM [^3H]8-OH-DPAT, 50 µL of 10 µM serotonin.
Specific binding each assay tube was added 900 µL of the tissue suspension, 50 µL of 0.5 nM [^3H]8-OH-DPAT, 50 µL of new compounds or reference drug.
as §5, with “5mL” for “5 mL”

dopamine D2 receptor = biological target: T4, dopamine D2 receptor (Rattus norvegicus, UniProt P61169); experiment: D2 dopaminergic binding assay ([3H]spiperone, rat striatum); conditions: read-out: Ki±SEM, D2
T4 construct: Rat striatum was homogenized in 20 volumes of ice-cold 50 mM Tris-HCl buffer; from tissue; host or cells: rat striatum
T4 sequence (P61169 whole entry): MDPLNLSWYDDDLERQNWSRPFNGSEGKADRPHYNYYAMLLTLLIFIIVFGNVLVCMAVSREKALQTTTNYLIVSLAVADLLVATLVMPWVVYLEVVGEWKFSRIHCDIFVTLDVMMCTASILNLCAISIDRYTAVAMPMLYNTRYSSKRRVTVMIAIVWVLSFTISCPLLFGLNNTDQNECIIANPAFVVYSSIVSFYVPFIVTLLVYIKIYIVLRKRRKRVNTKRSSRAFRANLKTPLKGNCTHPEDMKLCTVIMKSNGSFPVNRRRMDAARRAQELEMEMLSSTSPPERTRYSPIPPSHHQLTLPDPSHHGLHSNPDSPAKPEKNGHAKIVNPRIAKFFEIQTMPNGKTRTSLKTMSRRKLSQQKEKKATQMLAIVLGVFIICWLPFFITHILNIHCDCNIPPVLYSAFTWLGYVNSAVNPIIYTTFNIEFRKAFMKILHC
Method: as §1, §2, §3, §4
Rat striatum was homogenized in 20 volumes of ice-cold 50 mM Tris-HCl buffer (pH 7.7) using an ULTRA TURAX homogeniser, and centrifuged twice for 10 min at 48,000 g with resuspension of the pellet in fresh buffer. The final pellet was resuspended in 50 mM ice-cold Tris-HCl containing 120 mM NaCl, 5 mM KCl, 2 mM CaCl2, 1 mM MgCl2, 0.1% ascorbic acid and 5 µM pargyline.
Total binding each assay tube was added 900 µL of the tissue suspension, 50 µL of 0.5 nM [^3H]spiperone (16.2 Ci/mmol; Perkin Elmer Life Sciences, Boston, MA, USA), 50 µL Tris-HCl buffer containing 120 mM NaCl, 5 mM KCl, 2 mM CaCl2, 1 mM MgCl2, 0.1% ascorbic acid and 5 µM pargyline.
Non-specific binding each assay tube was added 900 µL of the tissue suspension, 50 µL of 0.5 nM [^3H]spiperone, 50 µL of 10 µM (+)-butaclamol.
Specific binding each assay tube was added 900 µL of the tissue suspension, 50 µL of 0.5 nM [^3H]spiperone, 50 µL of new compounds or reference drug.
as §5

[5] = biological target: T5, serotonin 5-HT2C receptor (Rattus norvegicus, UniProt P08909); experiment: 5-HT2C binding assay ([3H]mesulergine, rat brain cortex); conditions: mean of three experiments, read-out: Ki±SEM, 5HT2C
T5 construct: Rat cerebral cortex was homogenized in 20 volumes of ice-cold Tris-HCl buffer; from tissue; host or cells: rat brain (cerebral) cortex
T5 sequence (P08909 33-460): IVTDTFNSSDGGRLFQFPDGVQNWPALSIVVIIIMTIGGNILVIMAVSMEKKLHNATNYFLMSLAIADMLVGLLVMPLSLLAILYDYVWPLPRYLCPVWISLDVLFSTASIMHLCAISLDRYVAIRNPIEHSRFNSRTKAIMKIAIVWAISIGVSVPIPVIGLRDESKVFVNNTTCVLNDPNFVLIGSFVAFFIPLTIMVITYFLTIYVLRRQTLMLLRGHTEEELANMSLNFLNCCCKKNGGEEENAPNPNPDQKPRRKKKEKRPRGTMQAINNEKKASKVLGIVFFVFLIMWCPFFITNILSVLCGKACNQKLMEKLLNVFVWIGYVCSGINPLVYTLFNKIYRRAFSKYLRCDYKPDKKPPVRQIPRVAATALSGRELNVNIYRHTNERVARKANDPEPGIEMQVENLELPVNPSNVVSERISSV
Method: as §1
Total binding was determined in the absence of no-specific binding and compounds. Specific binding was determined in the presence of compounds. Non-specific binding was determined as the difference between total and specific binding. […]
Ki values were calculated based on the Cheng and Prussoff equation: Ki = IC50/(1+C/Kd) where C represents the concentration of the hot ligand used and Kd its receptor dissociation constant were calculated for each labeled ligand. […]
The resulting pellet was resuspended in the same quantity of the buffer centrifuged for 20 min. […]
as §5

dopamine D3 receptor = biological target: T6, dopamine D3 receptor (Rattus norvegicus, UniProt P19020); experiment: D3 dopaminergic binding assay ([3H]spiperone, rat olfactory tubercle); conditions: mean of three experiments, read-out: Ki±SEM, D3
T6 construct: Rat olfactory tubercle was homogenized in 20 volumes of ice-cold 50 mM Hepes Na; from tissue; host or cells: rat olfactory tubercle
T6 sequence (P19020 whole entry): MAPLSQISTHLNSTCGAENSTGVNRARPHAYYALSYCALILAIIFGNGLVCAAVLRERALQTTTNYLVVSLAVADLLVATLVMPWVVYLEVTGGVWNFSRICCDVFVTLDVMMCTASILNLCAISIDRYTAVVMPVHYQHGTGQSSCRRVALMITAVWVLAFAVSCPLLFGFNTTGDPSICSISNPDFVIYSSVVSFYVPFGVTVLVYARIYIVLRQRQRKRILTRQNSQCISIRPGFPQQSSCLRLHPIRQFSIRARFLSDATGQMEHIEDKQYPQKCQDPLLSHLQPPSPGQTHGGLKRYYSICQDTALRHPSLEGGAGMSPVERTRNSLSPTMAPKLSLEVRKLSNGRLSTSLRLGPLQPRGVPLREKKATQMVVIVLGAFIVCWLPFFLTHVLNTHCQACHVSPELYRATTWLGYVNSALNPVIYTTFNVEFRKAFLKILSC
Method: as §1, §2, §3, §4, §5

## O=C(CCCN1CCC(O)(c2ccc(Cl)cc2)CC1)c1ccc(F)cc1 [haloperidol]
In vivo
  ED50: 0.22 mg/kg
[1]
  ED50: 0.09 mg/kg
[2]
  ED50: 0.19 mg/kg

## Fc1ccc2c(C3CCN(CCCSc4nnc(-c5ccc(Cl)cc5)o4)CC3)noc2c1 [Compound 16, 2-(3-(4-(6-fluorobenzo[d]isoxazol-3-yl)piperidin-1-yl)propylthio)-5-(4-chlorophenyl)-1,3,4-oxadiazole]
Histamine H1 receptor; [3H]pyrilamine, guinea pig cerebellum, mean of three experiments, >10000 marked b: Ki not calculated, inhibition at 10 µM too low
  Ki: 0.0189 ± 0.0021 µM
[3]; [3H]ketanserin, rat brain cortex, mean of three experiments, >10000 marked b: Ki not calculated, inhibition at 10 µM too low
  Ki: 0.0066 ± 0.0008 µM
[4]; [3H]8-OH-DPAT, rat brain cortex, mean of three experiments, >10000 marked b: Ki not calculated, inhibition at 10 µM too low
  Ki: 0.0105 ± 0.0012 µM
Dopamine D2 receptor; [3H]spiperone, rat striatum, mean of three experiments, >10000 marked b: Ki not calculated, inhibition at 10 µM too low
  Ki: 0.0183 ± 0.0016 µM
[5]
  Ki: 0.502 ± 0.0562 µM
Dopamine D3 receptor
  Ki: 0.0155 ± 0.0019 µM

## COc1ccc(-c2nnc(SCCCN3CCC(c4noc5cc(F)ccc45)CC3)o2)cc1 [Compound 14, 2-(3-(4-(6-fluorobenzo[d]isoxazol-3-yl)piperidin-1-yl)propylthio)-5-(4-methoxyphenyl)-1,3,4-oxadiazole]
Histamine H1 receptor
  Ki: 0.0132 ± 0.0034 µM
[3]
  Ki: 0.00022 ± 2e-05 µM
[4]
  Ki: 0.0068 ± 0.0007 µM
Dopamine D2 receptor
  Ki: 0.0148 ± 0.0018 µM
Dopamine D3 receptor
  Ki: 0.219 ± 0.0352 µM

## CN1CCN(C2=Nc3cc(Cl)ccc3Nc3ccccc32)CC1 [clozapine]
In vivo
  ED50: 92.7 mg/kg
[1]
  ED50: 7.99 mg/kg
[2]
  ED50: 5.06 mg/kg
